US20240174638A1, “HETEROARYL DERIVATIVES AS APELIN RECEPTOR AGONISTS” (RESEARCH TRIANGLE INSTITUTE, priority 2021, published 2024)
Read-outs that look alike come from different tables or passages of the source.

Assays:
[1] = tested on: Escherichia coli WP2 uvrA (pKM101)
Human plasma protein = details: 6 h, 1 μM
in vitro [2] = details: rat, pH 7.4
Mouse plasma protein = details: 6 h, 1 μM
Rat plasma protein = details: 6 h, 1 μM
[3] = Plasma and tissue pharmacokinetics following a single oral administration in male SD rat; assay type: in vivo
Method: Assay: Plasma and Tissue Pharmacokinetics of Example 22 Following a Single Oral Administration in Male SD Rat
Preparation of PO (10 mg/kg, 10 mL/kg) Dosing
1 mg/mL solution of 0.5% (w/v) CMC-Na, 0.1% (v/v) Tween 80 in Milli-Q Water.
Dissolved 29.68 mg of EXAMPLE 22 in 29.637 mL of 0.5% (w/v) CMC-Na, 0.1% (v/v). Tween 80 in Milli-Q Water with vortexing and sonicate to obtain a solution.
(§1) The desired serial concentrations of working solutions were achieved by diluting stock solution of analyte with 50% acetonitrile in water solution. 5 μL of working solutions (10, 20, 50, 100, 500, 1000, 5000, 10000 ng/mL) were added to 50 μL of the blank SD Rat plasma to achieve calibration standards of 1˜1000 ng/mL (1, 2, 5, 10, 50, 100, 500, 1000 ng/mL) in a total volume of 55 μL. Four quality control samples at 2 ng/mL, 5 ng/mL, 50 ng/mL and 800 ng/mL for plasma were prepared independently of those used for the calibration curves. These QC samples were prepared on the day of analysis in the same way as calibration standards.
55 μL standards, 55 μL QC samples and 55 μL unknown samples (50 μL plasma with 5 μL blank solution) were added to 200 μL of acetonitrile containing IS mixture for precipitating protein respectively. Then the samples were vortexed for 30 s. After centrifugation at 4 degree Celsius, 3900 rpm for 15 min, the supernatant was diluted 3 times with water. 20 μL of diluted supernatant was injected into the LC/MS/MS system for quantitative analysis.
as §1, with “Rat tissue (lung, brain, kidney, muscle/skeletal, spleen, heart and skin) homogenous” for “Rat plasma”, “for tissue” for “for plasma”
50 μL standards, 50 μL QC samples and 50 μL unknown samples (50 μL Tissue with 5 μL blank solution) were added to 200 μL of acetonitrile containing IS mixture for precipitating protein respectively. Then the samples were vortexed for 30 s. After centrifugation at 4 degree Celsius, 3900 rpm for 15 min, the supernatant was diluted 3 times with water. 50 μL of heart diluted supernatant and 20 μL of other tissue diluted supernatant was injected into the LC/MS/MS system for quantitative analysis.

in vitro [4] = details: human
[5] = tested on: bleomycin-induced pulmonary fibrosis in C57BL/6 mice; assay: 21-day non-GLP prophylactic bleomycin-induced pulmonary fibrosis study (oropharyngeal bleomycin; lung weight, BAL leukocytes); assay type: in vivo, mouse
Method: The objective of this non-GLP study was to evaluate the prophylactic efficacy of EXAMPLE 22 in a 21-day model of bleomycin-induced pulmonary fibrosis in mice.
Mice were administered bleomycin (Catalog number C-61703-323-22, lot number D011495AA, Hospira) via oropharyngeal route to induce lung fibrosis.
Bleomycin-induced animals were treated twice daily with either of the three different doses of EXAMPLE 22 or pirfenidone starting from a day prior to disease induction and continued till study termination. Study animals were harvested on day 21 post-bleomycin administration. As an end point analysis, fibrosis symptoms such as body weight, absolute lung weight, lung weight normalized to body weight, and total leukocytes in BAL fluid were evaluated and compared with vehicle-treated mice.
One week prior to study initiation, 88 C57BL/6 mice, six to eight weeks of age were obtained from Simonsen Laboratories (Gilroy, CA). Animals were weighed prior to study initiation and 60 animals were randomized into groups such that mean body weights were similar for the different groups. Remaining animals with lower or higher body weight were not included into the study. Food and water was provided ad libitum, with a light/dark cycle of 12 hours.

[6] = prophylactic treatment twice daily, 21-day

For O=C(O)C[C@H](CCN1CCCC(F)(F)C1)NC(=O)c1cc(-c2ccccc2C(F)(F)F)n(-c2nccs2)n1 [Example 22, (3S)-5-(3,3-difluoropiperidin-1-yl)-3-{[1-(1,3-thiazol-2-yl)-5-[2-(trifluoromethyl)phenyl]-1H-pyrazol-3-yl]formamido}pentanoic acid], which “Cytotoxicity Code” value [1] is on record?
The value was “N”.

What about the “cytotoxicity to tester strain” value [1] of the same compound?
The value was “No cytotoxicity was observed”.

And the “dose related increase of revertant colonies” value [1]?
Its value is “No dose related increase”.

What about the “increase in mean number of revertant colonies vs negative/solvent control” value ([1]; Escherichia coli) of the same compound?
Its value is under 2 fold.

And the “% Protein Bound Rep 1” value (Human plasma protein)?
Its value is 36.79%.

And the “% Protein Bound Rep 2” value (Human plasma protein)?
The value was 90.21%.

And the “% Protein Bound Rep 3” value (Human plasma protein)?
The value was 87.89%.

What about the “Buffer Concentration Rep 1” value (Human plasma protein) of the same compound?
The value was 80.7 nM.

And the “Buffer Concentration Rep 2” value (Human plasma protein)?
Its value is 70.2 nM.

And the “Buffer Concentration Rep 3” value (Human plasma protein)?
The value was 81.2 nM.

And the “Mean % Protein Bound” value (Human plasma protein)?
The value was 88.29%.

And the “Plasma Concentration Rep 1” value (Human plasma protein)?
Its value is 611.0 nM.

And the “Plasma Concentration Rep 2” value (Human plasma protein)?
Its value is 717.1 nM.

And the “Plasma Concentration Rep 3” value (Human plasma protein)?
The value was 670.6 nM.

And the recovery at 6 h, 1 μM (in vitro [2])?
The recovery at 6 h, 1 μM was 72.7%.

What about the “% Protein Bound Rep 1” value (Mouse plasma protein) of the same compound?
The value was 92.07%.

What about the “% Protein Bound Rep 2” value (Mouse plasma protein) of the same compound?
The value was 90.96%.

And the “% Protein Bound Rep 3” value (Mouse plasma protein)?
Its value is 91.91%.

And the “Buffer Concentration Rep 1” value (Mouse plasma protein)?
The value was 67.1 nM.

What about the “Buffer Concentration Rep 2” value (Mouse plasma protein) of the same compound?
Its value is 79.3 nM.

What about the “Buffer Concentration Rep 3” value (Mouse plasma protein) of the same compound?
Its value is 67.6 nM.

What about the “Mean % Protein Bound” value (Mouse plasma protein) of the same compound?
Its value is 91.60%.

What about the “Plasma Concentration Rep 1” value (Mouse plasma protein) of the same compound?
The value was 846.3 nM.

What about the “Plasma Concentration Rep 2” value (Mouse plasma protein) of the same compound?
The value was 877.0 nM.

What about the “Plasma Concentration Rep 3” value (Mouse plasma protein) of the same compound?
Its value is 835.8 nM.

What about the “% Protein Bound Rep 1” value (Rat plasma protein) of the same compound?
The value was 91.63%.

And the “% Protein Bound Rep 2” value (Rat plasma protein)?
Its value is 90.98%.

What about the “% Protein Bound Rep 3” value (Rat plasma protein) of the same compound?
The value was 92.73%.

What about the “Buffer Concentration Rep 1” value (Rat plasma protein) of the same compound?
Its value is 49.3 nM.

And the “Buffer Concentration Rep 2” value (Rat plasma protein)?
Its value is 62.3 nM.

And the “Buffer Concentration Rep 3” value (Rat plasma protein)?
The value was 53.6 nM.

What about the “Mean % Protein Bound” value (Rat plasma protein) of the same compound?
Its value is 91.78%.

And the “Plasma Concentration Rep 1” value (Rat plasma protein)?
The value was 588.6 nM.

And the “Plasma Concentration Rep 2” value (Rat plasma protein)?
Its value is 690.6 nM.

What about the “Plasma Concentration Rep 3” value (Rat plasma protein) of the same compound?
Its value is 737.4 nM.

What about the “4 h Conc., Brain (mean)” value ([3]; 4 h post dose) of the same compound?
Its value is “BLQ”.

What about the “24 h Conc., Brain (mean)” value ([3]; 24 h post dose) of the same compound?
Its value is “BLQ”.

And the “24 h Conc., Heart (mean)” value ([3]; 24 h post dose)?
Its value is “BLQ”.

What about the “24 h Conc., Muscle (mean)” value ([3]; 24 h post dose) of the same compound?
Its value is “BLQ”.

What about the “24 h Conc., Skin (mean)” value ([3]; 24 h post dose) of the same compound?
Its value is “BLQ”.

What about the “24 h Conc., Spleen (mean)” value ([3]; 24 h post dose) of the same compound?
Its value is “BLQ”.

And the concentration at 4 h ([3]; heart, 10 mg/kg, 4 h post dose, read-out: 4 h Conc., Heart (mean))?
Its concentration at 4 h is 28.8 ng/g.

What about the Kp at 4 h ([3]; heart, 10 mg/kg, 4 h post dose, read-out: 4 h Tissue:Plasma Ratio, Heart) of the same compound?
Its Kp at 4 h is 0.28.

And the Kp at 24 h ([3]; kidney (to plasma), 10 mg/kg, 24 h post dose, read-out: 24 h Tissue:Plasma Ratio, Kidney)?
Its Kp at 24 h is 3.47.

What about the concentration at 4 h ([3]; kidney, 10 mg/kg, 4 h post dose, read-out: 4 h Conc., Kidney (mean)) of the same compound?
The concentration at 4 h was 305 ng/g.

And the Kp at 4 h ([3]; kidney, 10 mg/kg, 4 h post dose, read-out: 4 h Tissue:Plasma Ratio, Kidney)?
Its Kp at 4 h is 3.11.

What about the concentration at 24 h ([3]; kidney, 10 mg/kg, 24 h post dose, read-out: 24 h Conc., Kidney (mean)) of the same compound?
Its concentration at 24 h is 22.9 ng/g.

And the concentration at 4 h ([3]; lung, 10 mg/kg, 4 h post dose, read-out: 4 h Conc., Lung (mean))?
Its concentration at 4 h is 40 ng/g.

And the Kp at 4 h ([3]; lung, 10 mg/kg, 4 h post dose, read-out: 4 h Tissue:Plasma Ratio, Lung)?
The Kp at 4 h was 0.39.

What about the concentration at 4 h ([3]; muscle (skeletal), 10 mg/kg, 4 h post dose, read-out: 4 h Conc., Muscle (mean)) of the same compound?
Its concentration at 4 h is 7.3 ng/g.

And the Kp at 4 h ([3]; muscle (skeletal), 10 mg/kg, 4 h post dose, read-out: 4 h Tissue:Plasma Ratio, Muscle)?
Its Kp at 4 h is 0.07.

What about the concentration at 4 h ([3]; plasma, 10 mg/kg, 4 h post dose, read-out: 4 h Conc., Plasma (mean)) of the same compound?
Its concentration at 4 h is 102 ng/mL.

And the concentration at 24 h ([3]; plasma, 10 mg/kg, 24 h post dose, read-out: 24 h Conc., Plasma (mean))?
The concentration at 24 h was 6.6 ng/mL.

And the concentration at 4 h ([3]; skin, 10 mg/kg, 4 h post dose, read-out: 4 h Conc., Skin (mean))?
The concentration at 4 h was 19.3 ng/g.

What about the Kp at 4 h ([3]; skin, 10 mg/kg, 4 h post dose, read-out: 4 h Tissue:Plasma Ratio, Skin) of the same compound?
The Kp at 4 h was 0.19.

And the concentration at 4 h ([3]; spleen, 10 mg/kg, 4 h post dose, read-out: 4 h Conc., Spleen (mean))?
Its concentration at 4 h is 14 ng/g.

What about the Kp at 4 h ([3]; spleen, 10 mg/kg, 4 h post dose, read-out: 4 h Tissue:Plasma Ratio, Spleen) of the same compound?
The Kp at 4 h was 0.14.

What about the recovery at 6 h, 1 μM (in vitro [4]) of the same compound?
The recovery at 6 h, 1 μM was 74.4%.

What about the “effectiveness compared across doses” value ([5]; 30 mg/kg) of the same compound?
Its value is “somewhat more effective”.

What about the normalized lung weights ([5]; normalized to body weight, prophylactic treatment twice daily, 21-day) of the same compound?
Its normalized lung weights is “reduced absolute and normalized lung weights”.

And the absolute lung weights [5, 6]?
The absolute lung weights was “reduced absolute and normalized lung weights”.

And the “total number of leukocytes from bronchoalveolar lavage (BAL) fluid” value [5, 6]?
The value was “decreased total number of leukocytes”.

And the “overt symptoms associated with bleomycin administration” value ([5]; prophylactic treatment twice daily, 21-day non-GLP study)?
Its value is “improved the overt symptoms”.
